According to article PMC3805035 (Proteins, 2010):

Key:
[1] = target: T1, abietadiene synthase (AgABS) (Abies grandis, UniProt Q38710); assay type: biochemical
T1 sequence (Q38710 71-868): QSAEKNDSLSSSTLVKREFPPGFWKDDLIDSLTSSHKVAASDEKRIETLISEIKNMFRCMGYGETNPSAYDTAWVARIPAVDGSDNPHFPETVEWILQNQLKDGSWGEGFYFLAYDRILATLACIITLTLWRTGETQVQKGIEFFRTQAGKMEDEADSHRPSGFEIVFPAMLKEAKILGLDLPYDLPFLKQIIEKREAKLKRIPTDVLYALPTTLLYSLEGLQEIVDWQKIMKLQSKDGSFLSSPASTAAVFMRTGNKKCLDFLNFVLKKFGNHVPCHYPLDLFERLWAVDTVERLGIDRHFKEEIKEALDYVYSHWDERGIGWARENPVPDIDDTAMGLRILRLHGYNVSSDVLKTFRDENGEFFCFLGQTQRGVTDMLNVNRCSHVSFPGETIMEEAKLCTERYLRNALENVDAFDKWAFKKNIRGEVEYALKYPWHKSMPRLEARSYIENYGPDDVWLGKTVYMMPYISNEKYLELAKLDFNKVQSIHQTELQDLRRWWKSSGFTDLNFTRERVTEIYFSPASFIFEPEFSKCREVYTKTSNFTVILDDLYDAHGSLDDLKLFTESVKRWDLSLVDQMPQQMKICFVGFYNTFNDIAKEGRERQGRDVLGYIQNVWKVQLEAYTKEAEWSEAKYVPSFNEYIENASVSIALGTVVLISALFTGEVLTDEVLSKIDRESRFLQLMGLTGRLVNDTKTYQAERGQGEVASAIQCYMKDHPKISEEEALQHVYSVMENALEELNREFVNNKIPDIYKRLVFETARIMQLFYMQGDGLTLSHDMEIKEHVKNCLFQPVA

[2] = target: T2, M. tuberculosis Rv3377c (halimadienyl diphosphate synthase) (Mycobacterium tuberculosis, UniProt O50406); assay type: biochemical
T2 sequence (O50406 1-501): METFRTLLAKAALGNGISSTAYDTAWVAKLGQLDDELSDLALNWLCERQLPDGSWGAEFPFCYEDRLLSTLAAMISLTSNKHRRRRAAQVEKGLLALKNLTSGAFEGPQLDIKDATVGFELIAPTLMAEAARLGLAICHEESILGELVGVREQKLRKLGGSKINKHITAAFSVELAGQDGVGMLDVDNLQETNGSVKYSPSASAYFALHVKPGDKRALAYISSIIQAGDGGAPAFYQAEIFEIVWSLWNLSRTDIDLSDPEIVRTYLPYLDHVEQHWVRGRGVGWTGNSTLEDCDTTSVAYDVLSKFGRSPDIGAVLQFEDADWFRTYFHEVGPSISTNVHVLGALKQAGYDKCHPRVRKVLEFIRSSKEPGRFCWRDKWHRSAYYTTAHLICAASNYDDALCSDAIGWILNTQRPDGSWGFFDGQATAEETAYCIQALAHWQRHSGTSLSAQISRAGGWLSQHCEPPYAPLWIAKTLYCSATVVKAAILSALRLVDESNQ

C=CCN(C)CCCCCCCCCCCCCCCC(=O)OC [BPH-922]
IC50 [1]: 250 nM

CC(C)=CCCC(C)=CCCC(C)=CCC(P(=O)(O)O)P(=O)(O)O [BPH-850, farnesylmethylene bisphosphonate]
comparison of IC50 using GGPP or CPP as substrate, ABS ([1]; GGPP versus CPP as substrate): about the same IC50

O=P(O)(O)C(O)(Cn1ccnc1)P(=O)(O)O [zoledronate]
activity against the M. tuberculosis protein (Rv3377c) [2]: no activity | effect on ABS activity [1]: no effect

C/C(=C\CC/C(C)=C/COP(=O)(O)OP(=O)(O)O)CC/C=C(\C)CCCN(C)C [15-aza-GGPP]
IC50 ([2]; read-out: Rv3377c inhibition (quantity not given)): 5 nM

O=P(O)(O)C(O)(Cc1cnc2ccccn12)P(=O)(O)O [minodronate]
activity against the M. tuberculosis protein (Rv3377c) [2]: no activity | effect on ABS activity [1]: no effect
